According to publication PMC12040169 (PLOS Biology, 2025):

Test: in vitro
Conditions: human, hela cells, % viability

Row | SMILES | viability at 28.5 h, 10 µM
1 | C[C@H]1[C@@H]2[C@@H](O)C([C@H](C)C(=O)N3CCCC3)CC[C@@]2(C)CC[C@@H]1NC(=O)c1ccncc1 (stereo partly shown) [CBK289450] | 94.8%
2 | CC(=O)N1CCc2c([nH]c3ccccc23)C12CCN(CCc1ccccc1)CC2 [CBK039757] | 78.8%
3 | Cc1ccccc1OC(C)C(=O)Nc1ccc(S(=O)(=O)N2CCCC2)cc1 (stereo not shown) [CBK269367] | 89.7%
4 | Cc1ccc(OCc2nnc(SCC(=O)c3ccc(Br)cc3)n2N)cc1 [CBK266482] | 99.5%
5 | O=C1NC(=O)C(CC(=O)N2CCCC3(CCN(C(=O)c4cc(F)c(F)cc4F)C3)C2)N1 (stereo not shown) [CBK131550] | 96.2%
6 | O=[N+]([O-])c1cccc(CN2CCC(N3CCN(Cc4ccccc4)CC3)CC2)c1 [CBK264609G] | 93.5%
7 | O=S(=O)(O)c1cccc2cccc(Nc3ccccc3)c12 [CBK013362G] | 84.8%
8 | COc1cccc(-c2cnc(N(C)S(C)(=O)=O)c(C(=O)NC3CCCCC3)c2)c1 [CBK106446] | 109%
9 | Cc1cccc(C2(O)CCN(C(=O)c3cc(C(C)C)nn3C)CC2)c1 [CBK282163] | 87.5%
10 | Nc1ncc(-c2cncnc2)nc1NCC1CCOCC1 [CBK063877] | 98.1%
11 | CCn1cc(C(=O)O)c(=O)c2cnc(N3CCN(C(=S)Nc4ccc5c(c4)OCCO5)CC3)nc21 [CBK267895] | 95.8%
12 | O=[N+]([O-])c1ccc(O)c(/C=N/C(CO)(CO)CO)c1 [CBK261835] | 89.3%
13 | COc1ccc([C@@H]2CCN(C(=O)Cc3ccc(F)cc3)C[C@H]2O)cc1 [CBK283709] | 88.8%
14 | CCCCOC(=O)c1ccc(NC(=O)NCCc2cccs2)cc1 [CBK043381] | 86%
15 | CC1(C)Cc2nc(N3CCOCC3)ncc2C(NC(=O)NC(C)(C)C)C1 (stereo not shown) [CBK306978] | 101%
16 | OC(COc1c(Br)cccc1Br)CN1CCCCC1 (stereo not shown) [CBK003077T] | 90.9%
17 | CC(C)(C)OC(=O)N1CCN(CCn2cc(C(=O)O)nn2)CC1 [CBK287112] | 86.8%
18 | COCc1ccc(-c2nccnc2NS(=O)(=O)c2c(C)noc2C)cc1 [CBK049656] | 122%
19 | Cn1c(Cc2ccc(Cl)cc2)nnc1SCc1nc2ccccc2c(=O)n1-c1cccc(C(F)(F)F)c1 [CBK268425] | 112%
20 | O=C(O)c1cccc(NC(=S)NC(=O)c2cccnc2)c1 [CBK265739] | 94.5%
21 | O=C(OCc1ccc(S(=O)(=O)N2CCOCC2)cc1)c1cc(-c2ccccc2)nc2ccccc12 [CBK267411] | 89.6%
22 | COC(=O)c1sc(-c2ccsc2)cc1N [CBK006256] | 91.8%

Row | SMILES | viability at 28.5 h, 10 µM
23 | O=C(Nc1ccc(-c2nc3ccc(-c4nc5ccc(NC(=O)c6cccc7ccccc67)cc5[nH]4)cc3[nH]2)cc1)c1cccc2ccccc12 [CBK261161] | 94.4%
24 | C#CCNC(=O)CC[C@H]1CNC(=O)[C@@H]2[C@@H](CCN2Cc2cccs2)N1C [CBK289033] | 103%
25 | Cc1ccc(NC(=O)c2ccncc2)cc1C [CBK174646] | 97.5%
26 | COc1csc(C(=O)Nc2ncn(CC(=O)N3CCCCCC3)n2)c1 [CBK304463] | 84.6%
27 | CC(Sc1ccccn1)C(=O)Nc1ccc(S(N)(=O)=O)cc1 (stereo not shown) [CBK265579] | 97.1%
28 | Cc1onc(-c2ccccc2Cl)c1C(=O)Nc1ccc(S(=O)(=O)NCC2CCCO2)cc1 (stereo not shown) [CBK267536] | 88.9%
29 | CCN(CC)C(=O)c1ccc(NS(=O)(=O)c2cccc(Cl)c2C)cc1 [CBK034393] | 108%
30 | O=C(O)Cc1cc2c(n1Cc1ccc(F)cc1)CCCC2=O [CBK283866] | 93.8%
31 | CN(C)c1cccc(NC(=O)Nc2ncc(Br)c3cccnc23)c1 [CBK107633] | 94%
32 | O=C1CC(c2ccc(F)cc2)Cc2[nH]c(=O)c(C(=O)O)cc21 (stereo not shown) [CBK287200] | 88.8%
33 | FC(F)(F)c1ccc(N2CCNCC2)nc1OCCOc1ccc2ccccc2c1 [CBK200002A] | 92.1%
34 | CC(C)N(CCOc1nccnc1-c1ccsc1)C(C)C [CBK106777] | 111%
35 | COc1cccc(Cc2cccc(C3CCN(C(=O)Cc4c[nH]c5ccccc45)CC3)n2)c1 [CBK286145] | 93.1%
36 | O=C(c1cc2c([nH]1)CCCC2)N1CCC(CCN2CCOCC2)CC1 [CBK281869] | 88.9%
37 | Cc1ccccc1-c1nnc(NC(=O)c2ccc(N3C(=O)CCC3=O)cc2)s1 [CBK287332] | 85.9%
38 | Cc1cc(C)c2nc(-c3ccccn3)cc(C(=O)Nc3cccc(Cn4cccn4)c3)c2c1 [CBK267723] | 90.4%
39 | Cc1nn(CC(=O)N(C)Cc2cnccn2)c(=O)c2ccccc12 [CBK304356] | 97.6%
40 | O=C1CC2(CCCCC2)C(C(=O)O)N1 (stereo not shown) [CBK009895] | 114%
41 | COCCN1C(=O)C2(CC(=O)N(CCCCC(C)C)C2=O)c2cc(OC)ccc21 (stereo not shown) [CBK075145] | 109%
42 | O=C(Cc1cccc(O)c1)N1CCCC1c1nc2ccccc2[nH]1 (stereo not shown) [CBK282346] | 91.9%
43 | Cc1cc(C)nc(N2CCC(CC(=O)NCCCc3ccc(F)cc3)CC2)n1 [CBK285995] | 83.1%
